Laboratory results from patent US12622944B2, “Compositions containing, methods involving, and uses of non-natural amino acid linked dolastatin derivatives” (priority 2011, dated 2026).
Read-outs that look alike come from different tables or passages of the source.

Assays:
[1] = test system: HCC1954 (human breast carcinoma) xenograft; assay: In vivo anti-tumor efficacy in HCC1954 xenograft, SCID-bg mice; details: 25 mg/kg iv qod × 5; day 28; HCC1954 study
Protocol: HCC1954 (human breast carcinoma) cells were obtained from American Type Culture Collection (Manassas, VA) and cultured in RPMI+10% FBS, 37° C., 5% CO2 until 80% confluent. Cells were harvested by trypsinization and suspended in PBS at 1×10^8 cells/mL.
Female, SCID-beige mice, 5-8 weeks old, were obtained from Charles River Laboratories. HCC1954 cells (human, breast carcinoma, ATCC, #CRL-2338) were mixed 1:1 with Matrigel (BD Biosciences, Bedford MA) and injected subcutaneously into the mice. When tumors reached an average size of 100-200 mm^3, mice were sorted into groups of 9-10 mice each. Caliper measurements were taken twice weekly until the end of the study. To estimate tumor volume, two orthogonal diameters were measured with calipers and the values entered into the formula, (L×W×W)/2=V, (where W=the shortest diameter, L=the longest diameter and V-volume), to obtain an estimated volume. The tumor volume was converted to tumor weight in the Excel data file by assuming 1 mm^3=1 mg. Endpoint was based on a study design of tumor growth inhibition (TGI). When the mean tumor volume of the control group reached approx. 1,000 mm^3 all mice were euthanized or day 28, whichever came first. […]
HCC1954 cells were utilized for this study with 10 cells/mouse in Matrigel, SC in the right flank. […] Tumor volume was monitored until the endpoint was reached (1,000 mm^3 or 60 days). […]

SKOV-3 = assay: In vitro inhibition of proliferation assay (WST-8), SKOV-3; assay type: cell-based
Protocol: (§1) At day 1, the cells were seeded. The media was aspirated and the T-225 culture flasks of cells was rinsed with 30 mL PBS−/. PBS was aspirated and 6 mL of 0.25% Trypsin-EDTA was added to each flask. The flasks were incubated at 37° C., 5% CO2 for 2-5 minutes. Adherent cells were dislodged by hitting flask and trypsin was neutralized by adding 14 mL culture medium. The cell suspension was mixed and transferred to a 50 mL conical tube. The cells were spun down at 1200 rpm, 5 min, room temperature. The resultant cell pellet was resuspended in 12 mL of culture medium. The cells were counted in a hemacytometer. Cells were seeded at appropriate cell densities into 96-well flat-bottom, clear plates and incubated overnight at 37° C., 5% CO2 to allow cells to attach. Plating volume was 80 uL/well. 80 uL/well of culture medium was utilized as the “no cell” control.
(§2) Cell plating density examples include: • BT474 (high Her2)—20,000 cells/well in F12k/DMEM (50/50), 10% FBS, P/S • MDA-MB-468 (Her2 negative)-6,000 cells/well in F12k/DMEM (50/50), 10% FBS, P/S • HCC1954—5,000 cells/well in RPMI 1640, 10% FBS, P/S • SKOV-3—6,000 cells/well in RPMI 1640, 10% FBS, P/S • HT29—20,000 cells/well in McCoy's 5A, 10% FBS, P/S
(§3) At day 2, the test samples were added to the cells. The test samples were diluted in culture medium to a 9× stock concentration in Column 2 of a round-bottom 96-well plate. 3× serial dilutions were made from Column 2 to Column 11 with a multi-channel pipettor. 10 uL/well of the above samples was added in duplicate to the appropriate wells of the seeded plate. The total volume in the wells was about 90 uL/well. 10 uL/well of culture medium was added to avoid edge effects for sample wells. Media Control wells were included in the inner wells where no sample was added (just 10 uL/well of culture medium) to be used in proliferation calculations. The plates were incubated at 37° C., 5% CO2 for 72 hrs.
(§4) At day 5, proliferation readout occurred. […] The plates were measured for absorbance at OD 450 nm. […]

LS513 = assay: In vitro inhibition of proliferation assay (WST-8), LS513; assay type: cell-based; details: Data Set I, experiment Sept. 4, 2010, read-out: IC50 Values [nM] after 72 hr drug treatment
Protocol: as §1
(§5) At day 2, the test samples were added to the cells. The test samples were diluted in culture medium to a 9× stock concentration in Column 2 of a round-bottom 96-well plate. 3× serial dilutions were made from Column 2 to Column 11 with a multi-channel pipettor. 10 uL/well of the above samples was added in duplicate to the appropriate wells of the seeded plate. The total volume in the wells was about 90 uL/well. […]
as §4

NCI-N87 = assay: In vitro inhibition of proliferation assay (WST-8), NCI-N87; assay type: cell-based; details: Data Set I, experiment Sept. 4, 2010, read-out: IC50 Values [nM] after 72 hr drug treatment
Protocol: as §1, §5, §4

HCC1954 = assay: In vitro inhibition of proliferation assay (WST-8), HCC1954; assay type: cell-based, human; details: read-out: IC50 Values [nM] after 72 hr drug treatment
Protocol: as §1, §2
(§6) At day 2, the test samples were added to the cells. […]
as §4

MDA-MB-468 = assay: In vitro inhibition of proliferation assay (WST-8), MDA-MB-468; assay type: cell-based; details: Data Set II, experiment Oct. 8, 2010, read-out: IC50 Values [nM] after 72 hr drug treatment
Protocol: as §1, §2, §6, §4

ZR-75-30 = assay: In vitro inhibition of proliferation assay (WST-8), ZR-75-30; assay type: cell-based; details: Data Set I, experiment Sept. 4, 2010, read-out: IC50 Values [nM] after 72 hr drug treatment
Protocol: as §1, §5, §4

HT29 = assay: In vitro inhibition of proliferation assay (WST-8), HT29; assay type: cell-based; details: Data Set II, experiment Sept. 24, 2010, read-out: IC50 Values [nM] after 72 hr drug treatment
Protocol: as §1, §2, §6, §4

MDA-MB-175 = assay: In vitro inhibition of proliferation assay (WST-8), MDA-MB-175; assay type: cell-based; details: Data Set I, experiment Sept. 13, 2010
Protocol: as §1, §5, §4

BT474 = assay: In vitro inhibition of proliferation assay (WST-8), BT474; assay type: cell-based
Protocol: as §1, §2, §3, §4

[2] = Data Set I, experiment Sept. 4, 2010, read-out: IC50 Values [nM] after 72 hr drug treatment
[3] = Data Set I, experiment Sept. 13, 2010, read-out: IC50 Values [nM] after 72 hr drug treatment

Compound | Median Tumor Volume (mm3) [1] [mm3] | T/C (Treated/Control) [1] | IC50 (SKOV-3; [2]) [nM] | IC50 (SKOV-3; [3]) [nM] | IC50 (SKOV-3; Data Set II, experiment Oct. 8, 2010, read-out: IC50 Values [nM] after 72 hr drug treatment) [nM] | IC50 (LS513) [nM] | IC50 (NCI-N87) [nM] | IC50 (HCC1954; HCC1954, Data Set I, experiment Sept. 4, 2010) [nM] | IC50 (HCC1954; HCCI954, Data Set II, experiment Oct. 8, 2010) [nM] | IC50 (MDA-MB-468) [nM] | IC50 (ZR-75-30) [nM] | IC50 (HT29) [nM] | IC50 Values [nM] after 72 hr drug treatment (MDA-MB-175) | IC50 (BT474; [2]) [nM] | IC50 (BT474; [3]) [nM] | IC50 (BT474; Data Set II, experiment Sept. 24, 2010, read-out: IC50 Values [nM] after 72 hr drug treatment) [nM]
CC(=O)O[C@H]1C(=O)[C@@]2(C)[C@H]([C@H](OC(=O)c3ccccc3)[C@]3(O)C[C@H](OC(=O)[C@H](O)[C@@H](NC(=O)c4ccccc4)c4ccccc4)C(C)=C1C3(C)C)[C@]1(OC(C)=O)CO[C@@H]1C[C@@H]2O [paclitaxel] | 18 | 0.037 |  |  |  |  |  |  |  |  |  |  |  |  |  | 
Dolastatin |  |  | 0.2 | 0.1 | 0.2 | 0.2 | > 30 | 0.06 | 0.04 | < 0.01 | > 30 | 4 | no fit | 0.1 | 0.1 | 2.5
